The text below walks through data of article PMC11148078, “Potent activity of polymyxin B is associated with long-lived super-stoichiometric accumulation mediated by weak-affinity binding to lipid A” (Nature Communications, 2024).

Assay [1] has as its system wt-OMVs. The assay can be described thus: Single-cycle kinetic SPR binding to immobilized wt-OMVs. On the set-up: species or system E. coli. The note with it: for SPR binding in presence of excess Mg^2+: 32 mM Mg^2+; for SPR binding profile: serial doubling injections, C1 chip. As for the experimental part: Polymyxin B was covalently attached to a C1 chip (Series S Sensor Chip C1, Cytiva) using an amine coupling kit (Cytiva). Cartoon in Fig. 1A created with BioRender (biorender.com). Briefly, equal amounts of reagents N-hydroxysuccinimide and 1-ethyl-3-(3-dimethylaminopropyl) carbodiimide hydrochloride were mixed as per manufacturer’s instructions and immediately added to the gold chip surface for 2 min, washed with distilled deionized water, and dried. Sufficient polymyxin B (1 mM in 1 M HEPES buffer, pH 8) was added to cover the chip surface, incubated at room temperature for 1 h, washed as before, and then incubated with 1 M ethanolamine hydrochloride-NaOH, pH 8.5, for 1 min. The chip surface was washed with water, dried as previously described, immediately loaded into a Biacore S200, and primed with running buffer (described below) to equilibrate the system. C1 chips were used for multiple runs and discarded upon removal from the Biacore S200.
SCK C1-chip SPR experiments were performed in running buffer (Dulbecco’s phosphate-buffered salt solution 1x without calcium or magnesium (Fisher Scientific), pH 7.4, with 0.0005% tween-80 (Sigma) passed through a 0.2 µm filter) unless otherwise indicated. Inclusion of tween-80 prevented loss of polymyxin to the plastics[34] (also see Supplementary Information Methods). For experiments with brevicidine, which was suspended in DMSO, 0.125% DMSO was included in the running buffer. OMVs were diluted from frozen stocks to approximately 20–30 µg/ml protein in the OMV buffer. Capture of OMVs was performed at a low flow rate ([…]) for 300 s over the test channel(s) followed by a 300 s stabilization period. All subsequent steps were at a flow rate of […]. For single cycle kinetics, two-fold dilutions were injected over the channel(s) loaded with OMVs and a reference channel without OMVs for 30 s contact and 480 s dissociation. To regenerate chips, 0.5% SDS (desorb 1, Cytiva) was injected into all channels for 60 s at […] twice, with an extra buffer wash and four carry-over control steps to prevent residual SDS from disrupting the following cycle.
All single-cycle kinetic SPR traces shown were double-referenced (unless indicated) within the Biacore S200 Evaluation Software 1.0, exported as a.txt file, and imported (decimated) into GraphPad Prism (version 9.3.1 for Mac, GraphPad Software, San Diego, CA). For clarity, in some cases individual outlier data points (at buffer transitions) were removed when this would not change the overall data or conclusions.
(In general: Surface plasmon resonance follows binding to a sensor surface in real time, without labels.)

Assay [2] deals with E. coli WT+rifampicin. The experiment in a line: Rifampicin potentiation / outer membrane permeability, wild-type E. coli. The class given is cell-based. As for the experimental part: (§1) Bacterial strains and plasmids are listed in SI Table S5. LB growth media was prepared according to manufacturer’s instructions and supplemented with 0.2% arabinose and carbenicillin (50 μg/mL) for the strains containing pBAD24-mcr1 plasmid. Cultures were started by inoculating 3 ml LB with 1–2 colonies from fresh overnight plates and grown at 37 °C until in log phase. Modified minimal inhibitory concentration (MIC) assays were performed in 96-well round bottom polystyrene plates (Corning) with a final volume of 100 µl in LB supplemented with tween-80 at 0.0005%. […] Polymyxin B sulfate (TCI Co. Ltd), polymyxin B nonapeptide (PMBN) (Sigma), and brevicidine (Genentech) were diluted directly in the assay plates. Bacteria were diluted in LB with tween-80 0.0005% and added to a final OD600 of 0.0005. Growth was measured via OD600 on a SpectraMax M5 plate reader after overnight static growth at 37 °C with humidity.

Assay [3] has as its system wild-type E. coli cells. The assay can be described thus: Whole cell SPR, wild-type E. coli. It is filed as binding. On the procedure:
Bacterial strains were grown in LB or LB with 0.2% arabinose and carbenicillin (50 μg/mL) to log phase (OD600 approximately 0.4–0.6), centrifuged for 10 min at 2500 × g (3500 rpm using a tabletop centrifuge), and re-suspended in PBS to a final OD600 of approximately 5. SPR on whole bacterial cells was performed and analyzed as described for OMVs on C1 chip, but with an additional carry-over wash prior to the capture. Regeneration of the chip after whole cell binding also required additional steps ([…] flow rate): (1) PBS supplemented with 32 mM MgCl2 for 120 s, (2) 2.5 M NaCl for 30 s, (3) 0.5% SDS (Desorb 1, Cytiva) for 60 s with carry over controls between.

In assay [4] the test system is E. coli mcr1. The class given is cell-based. The note with it: for MIC: strain carrying plasmid encoding mcr-1, LB + 0.2% arabinose, carbenicillin, 0.0005% tween-80, overnight 37 °C. On the procedure:
as §1

Assay [5] relates to E. coli PmrA^G53E. It is filed as cell-based. The note with it: for MIC: LB + 0.0005% tween-80, overnight 37 °C. As for the experimental part:
as §1

Assay [6] has as its system E. coli PmrA^G53E+rifampicin. The assay can be described thus: Rifampicin potentiation / outer membrane permeability, E. coli PmrA^G53E. It is filed as cell-based. As for the experimental part: as §1

Entries after “also recorded” stand apart in the source; their conditions may differ. Like-named read-outs stand apart in the source and are kept apart here. Bridge positions count the residues as written; N and C are the ends. Square brackets hold non-standard residues; d marks the D form. Peptide text beside a SMILES is read from it. * marks the point of attachment. X1 = CC[C@H](C)CCCCC(=O)*; Dab = NCC[C@H](N)C(=O)O A value given as a limit tells only on which side of the number the result lay.

One may read the MIC as the smallest concentration in the dilution series that meets the test's criterion for growth inhibition. On to `CC(C)C[C@@H]1NC(=O)[C@@H](Cc2ccccc2)NC(=O)[C@H](CCN)NC(=O)[C@@H](NC(=O)[C@H](CCN)NC(=O)[C@@H](N)[C@@H](C)O)CCNC(=O)[C@H]([C@@H](C)O)NC(=O)[C@H](CCN)NC(=O)[C@H](CCN)NC1=O` [PMBN] (H-T[Dab][Dab][Dab][dF]L[Dab][Dab]T; lactam 3-C), for which the “SPR binding in presence of excess Mg^2+” value in assay [1] is recorded as “eliminated”. Further, the “SPR binding profile” value is “exhibited only weak, saw-tooth binding; also recorded: exclusively produces rapidly reversible binding” in assay [1] and “exhibited only weak, saw-tooth binding” in assay [3]. Besides, the “outer membrane permeabilization / rifampicin potentiation” value in assay [2] is “still permeabilizes the outer membrane to rifampicin; also recorded: can still permeabilize the outer membrane”. Also, the “MIC in presence of rifampicin” value was determined as 78 nM in assay [2] (rifampicin 1.56 µM, LB + 0.0005% tween-80, overnight 37 °C) and 20 µM in assay [6]. In addition, the MIC in assay [4] and in assay [5] was greater than 40 µM throughout.

Turning to `CC[C@H](C)CCCCC(=O)N[C@@H](CCN)C(=O)N[C@H](C(=O)N[C@@H](CCN)C(=O)N[C@H]1CCNC(=O)[C@H]([C@@H](C)O)NC(=O)[C@H](CCN)NC(=O)[C@H](CCN)NC(=O)[C@H](CC(C)C)NC(=O)[C@@H](Cc2ccccc2)NC(=O)[C@H](CCN)NC1=O)[C@@H](C)O` [Polymyxin B] (X1-[Dab]T[Dab][Dab][Dab][dF]L[Dab][Dab]T; lactam 4-C (inferred); N-terminus assumed), the “SPR binding in presence of excess Mg^2+” value in assay [1] was “reduced to a weak transient saw-tooth profile without stably bound polymyxin B”. Further, in assay [1] (EDTA 4 mM, maximum 625 nM, n=3), the “effect of EDTA on SPR binding” value is given as “had no effect on polymyxin binding”. Further, the “SPR binding profile” value is “dominated by the accumulation of tightly bound polymyxin B and a superimposed saw-tooth profile associated with transient binding” in assay [1]; “same polymyxin B binding profiles were observed” in assay [3]. For the same molecule, the “MIC in presence of rifampicin” value was less than 0.02 nM in assay [2] and 0.001 µM in assay [6]. For the same molecule, the “antibacterial activity” value in assay [4] (pBAD-mcr-1) and in assay [5] was “resistant to killing by polymyxin B” in each case. Besides, the minimal inhibitory concentration (MIC) in assay [4] is 2.5 to 5 µM; in assay [5], 10 µM. The “outer membrane permeabilization / rifampicin potentiation” value in assay [6] is given as “still potentiated the activity of an antibiotic normally excluded by the outer membrane, rifampicin”.
